Article PMC9143880, “Improving Antimicrobial Activity and Physico-Chemical Properties by Isosteric Replacement of 2-Aminothiazole with 2-Aminooxazole” (Pharmaceuticals, 2022)
Converted amounts (≈) assume the structure as drawn. Read-outs that look alike come from different tables or passages of the source.

Tests used:
G+ and G- bacteria = test system: G+ and G- bacteria; parameters: method as in PMID 24561667; details: whole cell, cited from earlier work
Escherichia coli FabH = test system: Escherichia coli FabH; parameters: method as in PMID 24561667; details: cited from earlier work
[1] = test system: Pseudomonas aeruginosa CCM 3955 (ATCC 27853); experiment: Antibacterial microdilution broth (EUCAST); format: cell-based; details: 72h incubation; for MIC: Pseudomonas aeruginosa, read-out: MIC PA
[2] = test system: Trichophyton interdigitale CCM 8377 (ATCC 9533); experiment: Antifungal microdilution broth (EUCAST); details: for MIC: Trichophyton interdigitale, 72 h, read-out: MIC TI; for MIC TI: 72h incubation
[3] = RP-UHPLC lipophilicity parameter log k’w; format: physicochemical; details: for log k’w: RP-UHPLC, acetonitrile/water, log k extrapolated to 0% acetonitrile; for logkw: experimental lipophilicity parameter
Summary of the method: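 log k’w from isocratic RP-UHPLC with an acetonitrile/water mobile phase, using 40, 45 and 50% acetonitrile for subtype I and 20, 30 and 40% for subtype II. A single run was made at each mobile-phase composition.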

[4] = test system: Aspergillus fumigatus ATCC 204305; experiment: Antifungal microdilution broth (EUCAST); details: for MIC: Aspergillus fumigatus, ATCC204305, 24 h, read-out: MIC AF; for MIC AF: 24h incubation
[5] = test system: M. smegmatis DSM 43465 (ATCC 607); experiment: Antimycobacterial MIC, microdilution broth / resazurin; format: cell-based; details: Mycolicibacterium smegmatis; resazurin after 48 h; read-out: MIC M. smegmatis
[6] = test system: Lichtheimia corymbifera CCM 8077; experiment: Antifungal microdilution broth (EUCAST); details: for MIC: Lichtheimia corymbifera, CCM8077, 24 h, read-out: MIC LC; for MIC LC: 24h incubation
[7] = test system: Staphylococcus epidermidis CCM 4418 (ATCC 12228); experiment: Antibacterial microdilution broth (EUCAST); format: cell-based; details: 24h incubation; for MIC: Staphylococcus epidermidis, read-out: MIC SE
[8] = test system: bacterial MetAP (S. aureus, E. coli) vs hMetAP; parameters: method as in PMID 15664828; details: tested against S. aureus; cited from earlier work
[9] = test system: Staphylococcus aureus subsp. aureus CCM 4223 (ATCC 29213); experiment: Antibacterial microdilution broth (EUCAST); format: cell-based; details: 24h incubation; for MIC: Staphylococcus aureus, read-out: MIC SA
[10] = test system: Mycobacterium tuberculosis H37Ra ITM-M006710 (ATCC 9431); experiment: Antimycobacterial MIC, microdilution broth / Alamar Blue (resazurin); format: cell-based; details: for MIC: Mycobacterium tuberculosis
[11] = test system: Escherichia coli CCM 3954 (ATCC 25922); experiment: Antibacterial microdilution broth (EUCAST); format: cell-based; details: 24h incubation; for MIC: Escherichia coli, read-out: MIC EC
[12] = test system: Candida parapsilosis CCM 8260 (ATCC 22019); experiment: Antifungal microdilution broth (EUCAST); details: for MIC: Lodderomyces parapsilosis, 24 h, read-out: MIC CP; for MIC CP: 24h incubation
[13] = test system: M. aurum DSM 43999 (ATCC 23366); experiment: Antimycobacterial MIC, microdilution broth / resazurin; format: cell-based; details: Mycolicibacterium aurum; resazurin after 72 h; read-out: MIC M. aurum
[14] = test system: Enterococcus faecalis CCM 4224 (ATCC 29212); experiment: Antibacterial microdilution broth (EUCAST); format: cell-based; details: 24h incubation; for MIC: Enterococcus faecalis, read-out: MIC EF
[15] = test system: Staphylococcus aureus subsp. aureus (MRSA) CCM 4750 (ATCC 43300); experiment: Antibacterial microdilution broth (EUCAST); format: cell-based; details: 24h incubation; for MIC: Staphylococcus aureus, read-out: MIC MRSA
[16] = test system: Candida albicans CCM 8320 (ATCC 24433); experiment: Antifungal microdilution broth (EUCAST); details: for MIC: Candida albicans, 24 h, read-out: MIC CA; for MIC CA: 24h incubation
[17] = test system: Candida krusei CCM 8271 (ATCC 6258); experiment: Antifungal microdilution broth (EUCAST); details: for MIC: Pichia kudriavzevii, 24 h, read-out: MIC CK; for MIC CK: 24h incubation
HepG2 cells = experiment: HepG2 cytotoxicity screening (CellTiter 96); format: cell-based, human; details: for IC50: Homo sapiens, HepG2, 24 h, 24 h incubation, CellTiter 96, * above highest tested concentration, ** limited by insolubility in medium
[18] = test system: Acinetobacter baumannii DSM 30007 (ATCC 19606); experiment: Antibacterial microdilution broth (EUCAST); format: cell-based; details: 24h incubation; for MIC: Acinetobacter baumannii, read-out: MIC AB
[19] = test system: Aspergillus flavus CCM 8363; experiment: Antifungal microdilution broth (EUCAST); details: for MIC: Aspergillus flavus, CCM8363, 24 h, read-out: MIC AFla; for MIC AFla: 24h incubation
[20] = test system: Candida tropicalis CCM 8264 (ATCC 750); experiment: Antifungal microdilution broth (EUCAST); details: for MIC: Candida tropicalis, 24 h, read-out: MIC CT; for MIC CT: 24h incubation
[21] = test system: M. kansasii DSM 44162 (ATCC 12478); experiment: Antimycobacterial MIC, microdilution broth / resazurin; format: cell-based; details: Mycobacterium kansasii, read-out: MIC M. kansasii
[22] = test system: M. avium DSM 44156 (ATCC 25291); experiment: as above; format: cell-based, Mycobacterium avium; details: Mycobacterium avium; resazurin after 96 h; read-out: MIC M. avium
PC12 cells = test system: PC12 cells; parameters: method as in PMID 19125579; details: acting as a PARP inhibitor; cited from earlier work
[23] = test system: Mycobacterium tuberculosis H37Ra ITM-M006710 (ATCC 9431); parameters: method as in PMID 30108959; details: cited from earlier work
[24] = 120 h, Middlebrook 7H9, resazurin after 120 h, read-out: Mtb H37Ra MIC

In the case of `O=C(Nc1nc(-c2ccc(Br)cc2)cs1)c1cccc(Cl)c1` [C], the MIC (G+ and G- bacteria; recalculated to µM) is listed as 7.9 to 31.8 µM, the MIC (G+ and G- bacteria) is listed as 3.13 to 12.5 µg/mL and the IC50 (Escherichia coli FabH) is listed as 9.3 µM.

For `O=C(Nc1nccs1)c1ccccn1` [Compound 1a], the MIC [1] was over 500 µM, the MIC [2] was 500 µM (≈ 103 µg/mL) and the “log k’w” value [3] was 1.857. The logkw [3] was 1.857, the MIC [4] was 500 µM (≈ 103 µg/mL) and the MIC [5] was 62.5 µg/mL (≈ 305 µM). For the same compound, the MIC [6] was over 500 µM, the MIC [7] was over 500 µM and the “selectivity towards bacterial MetAP over human homologue” value [8] was 100 fold. For the same compound, the MIC [9] was over 500 µM, the MIC [10, 24] was 31.2 µg/mL and the MIC [11] was over 500 µM. For the same compound, the MIC [12] was 500 µM (≈ 103 µg/mL), the MIC [13] was 7.81 µg/mL (≈ 38.1 µM) and the MIC [14] was over 500 µM. The MIC [15] was over 500 µM, the MIC [16] was over 500 µM and the MIC [17] was 500 µM (≈ 103 µg/mL). The IC50 (HepG2 cells) was over 1000 µM, the MIC [18] was over 500 µM and the MIC [19] was over 500 µM. The MIC [20] was over 500 µM.

In the case of `O=C(Nc1nc(-c2ccccc2)cs1)c1ccncc1` [Compound 13a], the MIC [1] is reported as over 125 µM, the MIC [2] is reported as over 125 µM and the MIC ([21]; 96 h) is reported as 7.81 µg/mL (≈ 27.8 µM). The “log k’w” value [3] was 2.190, the logkw [3] was 2.19 and the MIC [4] was over 125 µM. The MIC [5] was at least 500 µg/mL, the MIC [6] was over 125 µM and the MIC [7] was over 125 µM. For the same compound, the MIC [22] was at least 500 µg/mL, the cytoprotective effect (PC12 cells) was “moderate cytoprotective effect” and the MIC [9] was over 125 µM. The “Mtb H37Ra MIC” value ([10]; Middlebrook 7H9, resazurin after 120 h) was 7.81 µg/mL, the MIC [10, 24] was 3.91 to 7.81 µg/mL and the MIC ([10]; recalculated from µg/mL, read-out: MICH37Ra) was 27.8 µM. It also gave an MIC [11] of over 125 µM, an MIC [12] of over 125 µM and an MIC [13] of at least 500 µg/mL. The MIC [14] was over 125 µM, the MIC [15] was over 125 µM and the MIC [16] was over 125 µM. For the same compound, the MIC [17] was over 125 µM, the IC50 (HepG2 cells) was over 100 µM and the SI (HepG2 cells; SI = IC50 (µM) HepG2 / MICH37Ra (µM)) was over 3.6. For the same compound, the MIC [18] was over 125 µM, the MIC [19] was over 125 µM and the MIC [20] was over 125 µM.

For `O=C(Nc1nc(-c2ccccc2)cs1)c1cnccn1` [Compound 17a], the “MIC PA” value [1] was “insoluble”, the “MIC TI” value [2] was “insoluble” and the MIC ([21]; resazurin after 96 h) was over 50 µg/mL. For the same compound, the “log k’w” value [3] was 2.365, the logkw [3] was 2.365 and the “MIC AF” value [4] was “insoluble”. For the same compound, the MIC [5] was over 250 µg/mL, the “MIC LC” value [6] was “insoluble” and the “MIC SE” value [7] was “insoluble”. For the same compound, the “MIC SA” value [9] was “insoluble”, the “MIC EC” value [11] was “insoluble” and the “Mtb H37Ra MIC” value [23] was >50 [11] µg/mL. For the same compound, the “MIC CP” value [12] was “insoluble”, the “MIC EF” value [14] was “insoluble” and the “MIC MRSA” value [15] was “insoluble”. For the same compound, the “MIC CA” value [16] was “insoluble”, the “MIC CK” value [17] was “insoluble” and the “MIC AB” value [18] was “insoluble”. For the same compound, the “MIC AFla” value [19] was “insoluble” and the “MIC CT” value [20] was “insoluble”.

In the case of `O=C(Nc1nc(-c2ccccc2)cs1)c1cnc(Cl)cn1` [Compound 18a], the “MIC PA” value [1] is reported as “insoluble”, the “MIC TI” value [2] is reported as “insoluble” and the MIC ([21]; resazurin after 96 h) is reported as over 100 µg/mL. For the same compound, the “log k’w” value [3] was 3.173, the logkw [3] was 3.173 and the “MIC AF” value [4] was “insoluble”. For the same compound, the MIC [5] was over 500 µg/mL, the “MIC LC” value [6] was “insoluble” and the “MIC SE” value [7] was “insoluble”. The MIC [22] was over 100 µg/mL, the “MIC SA” value [9] was “insoluble” and the “MIC EC” value [11] was “insoluble”. For the same compound, the “Mtb H37Ra MIC” value [23] was >100 [11] µg/mL, the “MIC CP” value [12] was “insoluble” and the “MIC EF” value [14] was “insoluble”. For the same compound, the “MIC MRSA” value [15] was “insoluble”, the “MIC CA” value [16] was “insoluble” and the “MIC CK” value [17] was “insoluble”. For the same compound, the “MIC AB” value [18] was “insoluble”, the “MIC AFla” value [19] was “insoluble” and the “MIC CT” value [20] was “insoluble”.
